Data set [1] relates to P. yoelii (265 BY strain) sporozoites. Briefly: In vivo assay: P. yoelii sporozoite challenge in mice. More on the design: species or system Swiss mice. As to the method: All animal were kept and used in accordance with institutional guidelines and European regulations. Female 6-wk-old Swiss mice (René Janvier, Le Genest-Saint-Isle, France) weighing 24–31 g were randomly allotted to five groups. The drug to be tested was administered orally. Tazopsine was diluted in sterile water and NCP-tazopsine in sterile water with 10% of Tween 80 (Aldrich, Le Chesnay, France). The drugs were administrated on days −1, 0, +1, +2 (+40 h), and the mice challenged on day 0 by retro-orbital injection of P. yoelii (265 BY strain) sporozoites. Group 1 received 100 mg/kg/day of tazopsine (n = 5), and group 2 received sterile water at the same times (controls, n = 5); groups 1 and 2 were challenged with 4,000 sporozoites. Group 3 received 100 mg/kg/d of NCP-tazopsine (n = 5), group 4 received 200 mg/kg/d of NCP-tazopsine (n = 8), and group 5 received 10% Tween in sterile water (controls, n = 5); groups 3, 4, and 5 were challenged with 10,000 sporozoites. Parasites were enumerated by blinded microscopic examination of Giemsa-stained tail-blood smears collected from day 2 to day 23 postinoculation. A mouse was considered negative when no parasites could be observed in 20,000 red blood cells (50 fields under a 50× light microscope objective) on any day during the period of observation. The results presented were derived from two independent duplicate experiments.

The test system of data set [2] is primary human hepatocytes. Briefly: In vitro assay for cell viability (neutral red), human hepatocytes. It counts as cell-based. The conditions noted are these: 5 d drug exposure. As to the method:
(§1) Primary hepatocytes of mice or humans were prepared as above and seeded in 96-well plates coated with collagen, at a density of 5 × 10^4 and 7 × 10^4 cells per well, respectively. Drugs were added to the culture medium, which was changed daily after 24 h or 48 h of incubation for mouse and human hepatocytes, respectively. After 48 h of drug exposure (mouse hepatocytes) or 5 d (human hepatocytes), 50 μl of neutral red (Sigma) at 0.02% in phosphate-buffered saline (PBS) were added per well and incubated for 24 additional hours. Cultures were then washed with PBS and the neutral red extracted with 1% SDS from viable cells and quantified by measuring the OD540 on a microplate autoreader photometer (BioTek Instruments, Winooski, Vermont, United States).
(§2) IC50 and TC50 were calculated by nonlinear regression using four-parameter logistic curves on the SigmaPlot 10.0 software (http://www.systat.com). Each IC50 or TC50 is expressed as a mean between two independent experiments, followed by the standard error of the mean.

A further data set deals with P. yoelii blood stages. Briefly: In vivo assay: P. yoelii blood stages in mice. Here is the method:
In order to test for inhibitory activity against P. yoelii blood stages, four groups of five naive mice were inoculated (intraperitoneally) with 10^6 P. yoelii–infected red blood cells on day 0. Three hours later, one group was treated with tazopsine at 100 mg/kg, another with NCP-tazopsine at 200 mg/kg, whereas the other two groups acted as controls (respectively, water and 10% Tween 80). The doses were repeated daily until day +3. For the group treated with NCP- tazopsine and its control group, the animals were anesthetised 2 h following the administration of the last dose (day +3), and placed for 30 min over a cage with 100 female laboratory-bred A. stephensi. Oocysts were enumerated in 30 mosquito midguts dissected 8 d later, and the number of sporozoites in the salivary glands dissected from 30 insects was ascertained a further 7 d later. All the experiments were performed in two independent duplicates, and enumeration of parasites in blood smears and mosquitoes was conducted in a blinded fashion.

Data set [3] has as its system primary mouse hepatocytes. Briefly: In vitro assay for cell viability (neutral red), mouse hepatocytes. Type of data set: cell-based. The conditions noted are these: 48 h drug exposure. As to the method: as §1, §2
Data set [4] concerns P. yoelii (265 BY strain) hepatic stages. Briefly: In vitro assay for P. yoelii liver stage inhibition in primary mouse hepatocytes. It counts as cell-based. The conditions noted are these: for IC50 / IC90: 48 h. As to the method:
P. yoelii (265 BY strain) and P. falciparum (NF 54 strain) sporozoites were obtained by dissection of infected Anopheles stephensi salivary glands. Primary mouse hepatocytes were isolated as previously described and seeded in eight-well Lab-Tek plastic chamber slides (VWR, Fontenay-sous-Bois, France) previously coated with rat-tail collagen I (BD Biosciences, Le Pont de Claix, France) at a density of 10^5 cells per well. Mouse hepatocytes were cultured at 37 °C in 5% CO2 in William's E medium supplemented with 10% fetal calf serum, 1% L-glutamine, 1% sodium pyruvate, 1% insulin-transferrin-selenium, 1% nonessential amino acids, and 1% penicillin-streptomycin (all from Invitrogen, Cergy-Pontoise, France), for 24 h before inoculation of P. yoelii sporozoites (10^5 per well). Human liver fragments were collected following informed consent provided from patients undergoing a partial hepatectomy. The collection and use of these tissues were undertaken in accordance with French Government ethical regulations. Primary human hepatocytes were isolated from the healthy parts of these liver biopsies as previously described. Human hepatocytes were seeded in LabTek plastic chamber slides coated with collagen, at a density of 1.8 × 10^5 cells per well and cultured at 37 °C in 5% CO2 in the same medium as above, supplemented with 10^−7 M dexamethasone (Sigma) and 2% DMSO after complete cell adherence (12–24 h), for at least 48 h before inoculation of P. falciparum sporozoites (10^5 per well). For a standard assay, the plant extract, the purified compound, or primaquine was solubilized in DMSO, further diluted in culture medium (equal DMSO concentrations of <0.3% per well), and then added to hepatocyte cultures at the time of sporozoite inoculation. Three hours later, after sporozoite penetration into hepatocytes, cultures were washed and further incubated in the presence of the drug. Culture medium containing the appropriate drug concentration was changed daily until 48 h for P. yoelii, or until 5 d for P. falciparum. Parasites were quantified on the last day of incubation. For the in vitro timing experiments, tazopsine treatment of P. yoelii and P. falciparum cultures was undertaken for different periods during the cultivation: 0 h to 3 h, 3 h to 24 h, or 24 h to 48 h after P. yoelii sporozoite inoculation (quantification at 48 h), or 0 h to 2 d, or 3 d to 5 d after P. falciparum sporozoite inoculation (quantification at 5 d). […] Cells were stained with Evans Blue (0.4%), and parasites and cells nuclei were stained with 1 μg/ml of diamidino-phenylindole (DAPI; Sigma). Parasite numbers were counted under a fluorescence microscope with a 25× light microscope objective.
as §2

Where [5] appears, read: 100 mg/kg daily for 4 d oral, challenge with 4,000 P. yoelii sporozoites.

For orientation: IC50 means the concentration that inhibits the measured activity by half. A word on the IC90: it is the concentration needed for an effect of 90%. Low values mean greater potency, high ones weaker potency. One may read the IC80 as the concentration at which the effect reaches the 80% level. The low end stands for greater potency, the high end for weaker potency.

Molecules are shown by their SMILES. Entries after “also recorded” stand apart in the source; their conditions may differ.

Turning to `COC1=C2[C@@H]3[C@H](O)c4ccc(OC)c(O)c4[C@]2(CCN3C2CCCC2)C[C@H](O)[C@@H]1O` [NCP-tazopsine, N-cyclopentyl-tazopsine], the “extension of prepatent period over controls (nonprotected mice)” value in data set [1] (100 mg/kg for 4 d oral, 10,000 sporozoites) turned out to be 2 days. In addition, the “mice protected from infection” value in data set [1] (100 mg/kg for 4 d oral, challenge with 10,000 P. yoelii sporozoites) is listed as 60%. In addition, in data set [1] (200 mg/kg daily over 4 d oral, challenge with 10,000 P. yoelii sporozoites), the “mice developing a blood stage infection / protection after sporozoite challenge” value is given as “completely protected; also recorded: none of the mice developed a blood stage infection; also recorded: fully protected”. Besides, the TC50 in data set [2] is 2,549.6 ± 307.6 μM. Moreover, in the data set with P. yoelii blood stages (fully protective dose (200 mg/kg), mice inoculated with P. yoelii-infected blood (unpublished data)), the “effect on blood stage parasite multiplication” value was “no effect”. The same compound registered a TC50 in data set [3] of 150.5 ± 9.5 µM. In addition, in data set [4] (Plasmodium yoelii, Hepatocyte), the IC50 was 3.3 ± 0.05 µM and it took 5.2 ± 1.4 µM to reach the 90% level (IC90).

For `COC1=C2[C@H]3NCC[C@]2(C[C@H](O)[C@@H]1O)c1c(ccc(OC)c1O)[C@H]3O` [Tazopsine, tazopsine], the “extension of prepatent period over controls (nonprotected mice)” value in data set [1] (100 mg/kg daily for 4 d oral, 4,000 sporozoites) is “about 4 d”. In data set [1] (setting [5]), the “mice protected from infection” value was 70% and the “mice that developed a blood stage parasitemia” value amounted to 30%. In data set [2], this compound yielded a TC50 of 28.4 ± 4.3 µM. In addition, the “inhibition of the erythrocytic multiplication cycle” value with P. yoelii blood stages (100 mg/kg daily, mice challenged with P. yoelii-infected blood (unpublished data)) is “No significant inhibition”. Further, in data set [3], the TC50 worked out at 43.7 ± 1.6 µM. In data set [4] (P. yoelii, exposure 0-3 h, 3-24 h or 24-48 h), the “phase of hepatic development most susceptible to inhibition” value is recorded as “most pronounced during the early developmental stages of the hepatic parasite (3 to 24 h)”. In data set [4] (Plasmodium yoelii, Hepatocyte), this compound had an IC80 of 5 µM, an IC50 of 3.1 ± 0.1 µM and an IC90 of 6.3 ± 0.8 µM. Further, the “concentration giving total inhibition” value in data set [4] (cultured P. yoelii hepatic stages) is ≥ 7.1 µM. Moreover, the “Sporozoite invasion and differentiation into early hepatic stages” value in data set [4] (exposure 0-3 h postinfection, suboptimal inhibitory concentrations) is recorded as “not affected”.

The record behind these values is paper PMC1716192, “A Plant-Derived Morphinan as a Novel Lead Compound Active against Malaria Liver Stages” (PLoS Medicine, 2006).
